Data on nine molecules can be found in patent publication US10246453B2, “Benzenesulfonamide compounds and their use as therapeutic agents” (Xenon Pharmaceuticals Inc., priority 2016, dated 2019).

Structures are written as SMILES. Counter-ions that a name gives are not always drawn. Where only a bound is given, the exact number is not on record here.

Series [1] deals with T1, NaV1.1 (Homo sapiens (Human), UniProt P35498). The experiment in a line: Sodium Influx Assay (Flux), NaV1.1. It counts as cell-based. The note with it: Trex HEK293 cells, ANG2 dye; arithmetic mean.
The target in series [2] is T2, NaV1.5 (Homo sapiens (Human), UniProt Q14524). The experiment in a line: cell-based.
T2 sequence (Q14524 other isoform, or with tags, fused parts or gaps): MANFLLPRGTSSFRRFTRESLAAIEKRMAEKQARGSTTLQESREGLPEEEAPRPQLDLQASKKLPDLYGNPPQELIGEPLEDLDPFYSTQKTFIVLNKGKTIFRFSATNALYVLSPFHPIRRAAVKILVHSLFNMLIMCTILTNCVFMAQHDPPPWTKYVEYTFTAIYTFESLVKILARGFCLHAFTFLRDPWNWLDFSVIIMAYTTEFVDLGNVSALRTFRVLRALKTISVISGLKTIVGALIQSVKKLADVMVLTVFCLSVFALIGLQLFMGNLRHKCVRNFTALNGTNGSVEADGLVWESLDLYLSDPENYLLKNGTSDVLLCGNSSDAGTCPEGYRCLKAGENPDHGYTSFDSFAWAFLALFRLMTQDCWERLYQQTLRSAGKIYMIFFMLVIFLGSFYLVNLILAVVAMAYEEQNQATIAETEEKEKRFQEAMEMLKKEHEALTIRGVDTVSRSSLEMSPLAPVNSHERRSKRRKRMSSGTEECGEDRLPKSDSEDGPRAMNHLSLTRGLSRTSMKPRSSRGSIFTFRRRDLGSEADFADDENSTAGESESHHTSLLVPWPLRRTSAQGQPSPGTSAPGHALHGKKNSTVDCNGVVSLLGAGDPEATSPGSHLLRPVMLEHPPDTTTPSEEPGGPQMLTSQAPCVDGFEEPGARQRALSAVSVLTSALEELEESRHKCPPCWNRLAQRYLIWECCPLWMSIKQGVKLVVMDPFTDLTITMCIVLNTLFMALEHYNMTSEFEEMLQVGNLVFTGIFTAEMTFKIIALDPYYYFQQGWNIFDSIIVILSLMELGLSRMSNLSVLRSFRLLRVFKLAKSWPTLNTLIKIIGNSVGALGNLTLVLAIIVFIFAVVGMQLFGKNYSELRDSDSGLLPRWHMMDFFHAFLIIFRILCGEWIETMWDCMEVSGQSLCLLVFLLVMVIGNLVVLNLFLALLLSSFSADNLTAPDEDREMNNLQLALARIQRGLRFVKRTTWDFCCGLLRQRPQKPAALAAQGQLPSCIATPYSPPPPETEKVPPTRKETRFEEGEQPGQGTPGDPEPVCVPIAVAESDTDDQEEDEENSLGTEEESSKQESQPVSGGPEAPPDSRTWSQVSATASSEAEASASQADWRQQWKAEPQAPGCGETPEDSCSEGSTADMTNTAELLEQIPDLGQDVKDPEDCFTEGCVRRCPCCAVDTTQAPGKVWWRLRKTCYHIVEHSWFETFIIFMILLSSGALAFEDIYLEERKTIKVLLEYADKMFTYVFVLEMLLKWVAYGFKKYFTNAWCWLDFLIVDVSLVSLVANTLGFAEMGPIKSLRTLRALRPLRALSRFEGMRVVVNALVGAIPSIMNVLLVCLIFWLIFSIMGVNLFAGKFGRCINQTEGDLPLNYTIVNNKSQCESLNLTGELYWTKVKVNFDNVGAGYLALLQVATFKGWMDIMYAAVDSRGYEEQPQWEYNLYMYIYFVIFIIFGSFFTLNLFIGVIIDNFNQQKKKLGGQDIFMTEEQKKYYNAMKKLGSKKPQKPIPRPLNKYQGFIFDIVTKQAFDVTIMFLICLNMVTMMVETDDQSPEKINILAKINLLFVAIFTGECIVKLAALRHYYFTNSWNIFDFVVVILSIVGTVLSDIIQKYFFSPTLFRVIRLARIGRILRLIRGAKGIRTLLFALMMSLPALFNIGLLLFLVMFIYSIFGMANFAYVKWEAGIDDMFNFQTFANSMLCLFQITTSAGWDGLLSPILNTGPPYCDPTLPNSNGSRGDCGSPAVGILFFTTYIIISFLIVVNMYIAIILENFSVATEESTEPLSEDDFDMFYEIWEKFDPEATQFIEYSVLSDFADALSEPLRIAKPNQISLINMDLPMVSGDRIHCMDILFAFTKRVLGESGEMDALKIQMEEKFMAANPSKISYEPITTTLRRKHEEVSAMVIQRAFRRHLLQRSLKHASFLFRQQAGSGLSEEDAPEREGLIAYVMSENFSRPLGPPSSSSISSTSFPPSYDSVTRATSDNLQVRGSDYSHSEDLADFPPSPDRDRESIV
Series [3] addresses T3, NaV1.6 (Homo sapiens (Human), UniProt Q9UQD0). Briefly: Sodium Influx Assay (Flux), NaV1.6.
For series [4], the target named is T3, NaV1.6. Briefly: Electrophysiological Assay (EP), patch voltage clamp, NaV1.6. As to conditions: HEK-293 cells, whole-cell patch clamp, inactivated state; arithmetic mean. It counts as cell-based. Background: Patch clamp records ionic current or voltage across a cell membrane.
The target in series [5] is T1, NaV1.1. Briefly: Electrophysiological Assay (EP), patch voltage clamp, NaV1.1. The series is classed as cell-based. As to conditions: HEK-293 cells, whole-cell patch clamp, inactivated state; arithmetic mean.
Series [6] concerns the target T2, NaV1.5. The experiment in a line: Sodium Influx Assay (Flux), NaV1.5. The note with it: read-out: Flux NaV1.5 IC50; Trex HEK293 cells, ANG2 dye; arithmetic mean.
Setting [7] is: read-out: Flux NaV1.6 IC50, Trex HEK293 cells, ANG2 dye, arithmetic mean.

T3 sequence (Q9UQD0 whole entry): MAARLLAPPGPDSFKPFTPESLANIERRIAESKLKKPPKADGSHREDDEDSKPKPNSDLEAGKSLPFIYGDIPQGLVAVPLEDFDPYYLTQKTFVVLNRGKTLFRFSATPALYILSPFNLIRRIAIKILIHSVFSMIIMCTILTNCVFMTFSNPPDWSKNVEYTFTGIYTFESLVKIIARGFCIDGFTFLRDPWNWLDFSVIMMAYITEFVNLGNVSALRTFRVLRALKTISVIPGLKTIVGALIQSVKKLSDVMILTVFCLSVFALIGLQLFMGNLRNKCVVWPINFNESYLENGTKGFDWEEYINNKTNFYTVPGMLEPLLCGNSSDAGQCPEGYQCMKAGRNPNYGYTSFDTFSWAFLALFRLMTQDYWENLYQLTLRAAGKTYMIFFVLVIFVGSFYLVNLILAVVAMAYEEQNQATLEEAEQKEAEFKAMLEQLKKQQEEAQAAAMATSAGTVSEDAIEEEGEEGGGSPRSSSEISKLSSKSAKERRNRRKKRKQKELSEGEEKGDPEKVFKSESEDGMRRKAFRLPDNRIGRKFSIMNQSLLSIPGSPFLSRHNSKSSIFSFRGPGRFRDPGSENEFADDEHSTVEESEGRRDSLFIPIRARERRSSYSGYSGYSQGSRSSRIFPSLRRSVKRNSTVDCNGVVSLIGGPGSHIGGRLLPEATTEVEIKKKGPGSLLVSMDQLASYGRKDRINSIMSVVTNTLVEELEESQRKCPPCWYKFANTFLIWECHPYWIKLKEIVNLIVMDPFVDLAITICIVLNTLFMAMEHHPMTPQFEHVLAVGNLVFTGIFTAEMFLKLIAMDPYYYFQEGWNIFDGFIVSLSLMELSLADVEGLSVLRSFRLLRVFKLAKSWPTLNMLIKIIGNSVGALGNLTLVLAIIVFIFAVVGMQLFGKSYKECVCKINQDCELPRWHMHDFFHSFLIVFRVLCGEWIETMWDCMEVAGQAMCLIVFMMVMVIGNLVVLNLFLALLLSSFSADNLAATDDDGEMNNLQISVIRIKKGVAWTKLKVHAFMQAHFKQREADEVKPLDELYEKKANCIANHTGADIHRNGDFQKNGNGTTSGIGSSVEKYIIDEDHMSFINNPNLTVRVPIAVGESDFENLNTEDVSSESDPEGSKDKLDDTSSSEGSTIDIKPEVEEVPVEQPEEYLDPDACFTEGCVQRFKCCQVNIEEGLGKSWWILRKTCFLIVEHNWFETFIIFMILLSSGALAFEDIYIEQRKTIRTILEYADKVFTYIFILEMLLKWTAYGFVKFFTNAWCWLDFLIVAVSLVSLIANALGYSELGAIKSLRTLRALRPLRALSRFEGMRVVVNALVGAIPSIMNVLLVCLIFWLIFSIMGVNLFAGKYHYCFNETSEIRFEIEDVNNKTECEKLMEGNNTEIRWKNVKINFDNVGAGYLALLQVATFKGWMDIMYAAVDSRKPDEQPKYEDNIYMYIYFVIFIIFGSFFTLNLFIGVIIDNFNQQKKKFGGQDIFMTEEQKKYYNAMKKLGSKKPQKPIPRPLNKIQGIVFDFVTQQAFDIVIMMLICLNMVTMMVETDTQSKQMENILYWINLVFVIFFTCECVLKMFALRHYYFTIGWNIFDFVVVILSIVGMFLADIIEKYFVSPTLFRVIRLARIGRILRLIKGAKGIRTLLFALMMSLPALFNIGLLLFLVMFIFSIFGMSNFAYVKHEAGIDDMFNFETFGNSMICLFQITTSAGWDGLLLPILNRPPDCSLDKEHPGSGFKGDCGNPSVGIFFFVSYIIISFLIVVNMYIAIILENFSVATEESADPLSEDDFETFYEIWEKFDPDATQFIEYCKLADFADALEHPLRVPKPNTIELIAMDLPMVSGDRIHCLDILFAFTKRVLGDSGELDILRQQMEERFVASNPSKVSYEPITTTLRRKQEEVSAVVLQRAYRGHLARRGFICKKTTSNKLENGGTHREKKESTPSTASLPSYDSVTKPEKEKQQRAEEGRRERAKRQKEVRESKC

Consider `Cc1c(OC2(C)CCN(Cc3ccccc3)C2)cc(F)c(S(=O)(=O)Nc2nccs2)c1F` (racemic) [Example 228, rac-4-((1-benzyl-3-methylpyrrolidin-3-yl)oxy)-2,6-difluoro-3-methyl-N-(thiazol-2-yl)benzenesulfonamide 2,2,2-trifluoroacetate], for which the half-maximal inhibitory concentration (IC50) against NaV1.1 [1] came out at 5.27 µM; against NaV1.5 [2], 23.1 µM; at NaV1.6 [3], 0.031 µM.
In the same order, the values of `C[C@H](c1cc(C2CC2)ccc1F)N1CCC(Oc2ccc(S(=O)(=O)Nc3cscn3)cc2Cl)CC1` (stereo in doubt) [Example 320] are 4.25 µM, 4.74 µM and 3.24 µM.
Take `CN(c1cc(F)c(S(=O)(=O)Nc2cscn2)cc1Cl)[C@H]1CCN(Cc2cnn(Cc3ccccc3)c2)C1` [Example 165, (S)-4-((1-((1-benzyl-1H-pyrazol-4-yl)methyl)pyrrolidin-3-yl)(methyl)amino)-5-chloro-2-fluoro-N-(thiazol-4-yl)benzene-sulfonamide formate]: the IC50 on NaV1.1 [1] was 4.61 µM; against NaV1.5 [2] it was 6.97 µM; against NaV1.6 [3], 3.34 µM.
In the same order, the values of `CN(c1cc(F)c(S(=O)(=O)Nc2cscn2)cc1Cl)[C@H]1CCN(Cc2cccc3cccnc23)C1` [Example 170, (S)-5-chloro-2-fluoro-4-(methyl(1-(quinolin-8-ylmethyl)-pyrrolidin-3-yl)amino)-N-(thiazol-4-yl)benzene-sulfonamide formate] are 11.3 µM, 21.2 µM and 1.61 µM.
In the same order, the values of `COc1cccnc1CN1CC[C@H](N(C)c2cc(F)c(S(=O)(=O)Nc3cscn3)cc2Cl)C1` [Example 176, (S)-5-chloro-2-fluoro-4-((1-((3-methoxypyridin-2-yl)methyl)pyrrolidin-3-yl)(methyl)amino)-N-(thiazol-4-yl)benzene-sulfonamide formate] are above 30 µM, above 30 µM and 0.74 µM.
Turning to `CN(c1cc(F)c(S(=O)(=O)Nc2cscn2)cc1Cl)[C@H]1CCN(CCc2ccccc2)C1` [Example 179, (S)-5-chloro-2-fluoro-4-(methyl(1-phenethylpyrrolidin-3-yl)amino)-N-(thiazol-4-yl)benzene-sulfonamide formate], the figures for the 50% inhibitory concentration (IC50) against NaV1.1 [1], on NaV1.5 [2] and against NaV1.6 [3] were 6.91 µM, 20.4 µM and 4.89 µM, respectively.
For `Cc1ccc(CN2CC[C@H](N(C)c3cc(F)c(S(=O)(=O)Nc4cscn4)cc3Cl)C2)s1` [Example 189, (S)-5-chloro-2-fluoro-4-(methyl(1-((5-methylthiophen-2-yl)methyl)pyrrolidin-3-yl)amino)-N-(thiazol-4-yl)benzene-sulfonamide formate], the results for the IC50 against NaV1.1 [1], against NaV1.5 [2] and against NaV1.6 [3] were 7.38 µM, 16.6 µM and 1.87 µM, respectively.
Turning to `C[C@H](c1cc(Cl)ccc1F)N1CCC(Oc2ccc(S(=O)(=O)Nc3cscn3)cc2Cl)CC1` [Example 315, (R)-3-chloro-4-((1-(1-(5-chloro-2-fluorophenyl)ethyl)piperidin-4-yl)oxy)-N-(thiazol-4-yl)benzenesulfonamide], the IC50 at NaV1.1 [1] worked out at 5.62 µM; against NaV1.6 [4], 0.377 µM; on NaV1.1 [5], 4.25 µM; at NaV1.6 [3] (setting [7]), 1.07 µM; on NaV1.5 [6], 6.38 µM.
Taken in the same sequence, the figures for `Cc1c(N(C)[C@H]2CCN(Cc3ccccc3)C2)ccc(S(=O)(=O)Nc2cscn2)c1F` [Example 321, (S)-4-((1-benzylpyrrolidin-3-yl)(methyl)amino)-2-fluoro-3-methyl-N-(thiazol-4-yl)benzenesulfonamide 2,2,2-trifluoroacetate] were 12.3 µM, 0.137 µM, above 10 µM, 0.354 µM and 21.4 µM.

A word on the IC50: it is the concentration at which inhibition is half-maximal.
